The conditions of experiment [1]: N. Pant et al and P. M. Booth et al; cited from earlier work.
For experiment [2], the system named is Staph. haemolyticus clin. isolate (TLS). The experiment in a line: In vitro MIC, microdilution method in broth. In kind it is cell-based. The note with it: inoculum 10^5 cfu/ml, 18-24 hours at 37° C. As for the experimental part: (§1) The antimicrobial activity, expressed as minimal inhibitory concentration (MIC), of the hexapeptide of formula (I), R=hydrogen, against selected strains of Gram-positive bacteria was determined in comparison with teicoplanin. The microdilution method in DIFCO TODDO-HEWITT broth (Streptococci) or OXOID ISO-SENSITEST broth (Staphylococci) was used.
(§2) TLS = Low Sensitive to Teicoplanin
(§3) *Inoculum: 10^5 cfu/ml.
On the technique in general: Broth dilution looks for growth in wells or tubes with falling amounts of substance.

The subject of experiment [3] is Staph. aureus (TLS). The experiment in a line: In vitro MIC, microdilution method in broth. Type of experiment: cell-based. To be noted: Staph. aureus (TLS = Low Sensitive to Teicoplanin); inoculum 10^5 cfu/ml; 18-24 hours at 37° C. How it is done: as §1, §2, §3
Experiment [4] has as its system Staph. epidermidis (TLS). Description: In vitro MIC, microdilution method in broth. In kind it is cell-based. To be noted: Staph. epidermidis (TLS = Low Sensitive to Teicoplanin); inoculum 10^5 cfu/ml; 18-24 hours at 37° C. How it is done:
as §1, §2, §3

The test system of experiment [5] is two strains of S. aureus and S. epidermidis low sensitive to teicoplanin. The experiment in a line: Activity relative to teicoplanin (from MIC). In kind it is cell-based. How it is done:
as §1

In experiment [6] the test system is Staph. aureus Tour. Description: In vitro MIC, microdilution method in broth. Type of experiment: cell-based. To be noted: OXOID ISO-SENSITEST broth, inoculum 10^5 cfu/ml, 18-24 hours at 37° C. As for the experimental part:
as §1, §3

Experiment [7] concerns Strep. pneumoniae UC 41. The experiment in a line: In vitro MIC, microdilution method in broth. In kind it is cell-based. To be noted: DIFCO TODDO-HEWITT broth, inoculum 10^5 cfu/ml, 18-24 hours at 37° C. As for the experimental part: as §1, §3
For experiment [8], the system named is Strep. pyogenes C 203. The experiment in a line: In vitro MIC, microdilution method in broth. Type of experiment: cell-based. The note with it: DIFCO TODDO-HEWITT broth, inoculum 10^5 cfu/ml, 18-24 hours at 37° C. As for the experimental part: as §1, §3
The subject of experiment [9] is Staph. epidermidis ATCC 12228. The experiment in a line: In vitro MIC, microdilution method in broth. Type of experiment: cell-based. To be noted: inoculum 10^5 cfu/ml, 18-24 hours at 37° C. As for the experimental part: as §1, §3
Experiment [10] relates to Entero. faecalis ATCC 7080. The experiment in a line: In vitro MIC, microdilution method in broth. Type of experiment: cell-based. The note with it: inoculum 10^5 cfu/ml, 18-24 hours at 37° C. How it is done:
as §1, §3

Turning to Aglucovancomycin Hexapeptide, the Biological activity result in [1] is reported as “inactivity”.
As for “aglucoteicoplanin hexapeptide [Example 1]”, the MIC came to 16 µg/mL in experiment [2]; 2 µg/mL in experiment [3]; 1 µg/mL in experiment [4]; 2 µg/mL in experiment [6]; 4 µg/mL in experiment [7]; 8 µg/mL in [8]. The minimum inhibitory concentration (MIC) in experiment [9] stood at 0.5 µg/mL; in experiment [10] it was 8 µg/mL. The “Activity compared with teicoplanin” value in experiment [5] was “four to sixteen times more active”.
As for teicoplanin, the MIC in experiment [2] worked out at 16 µg/mL; in experiment [3], 8 µg/mL; in [4], 16 µg/mL; in experiment [6] it was 0.5 µg/mL; in experiment [7], 0.063 µg/mL; in experiment [8], 0.063 µg/mL. The figures for the MIC in experiment [9] and in [10] were 0.5 µg/mL and 0.125 µg/mL, respectively.
For the substance vancomycin hexapeptide, the Biological activity entry in experiment [1] is “inactivity”.

Broadly, the MIC is the smallest concentration in the dilution series that meets the test's criterion for growth inhibition. A low value points to inhibition by little substance.

These data come from patent US5438117A, “Hexapeptides deriving from aglucoteicoplanin and a process for preparing them” (Gruppo Lepetit S.p.A., priority 1990, dated 1995).
